Measured values: BindingDB's records for doi:10.1016/j.bioorg.2016.02.004 (Universiti Teknologi Mara (Uitm), Puncak Alam Campus, 2016)

Molecular target: Alpha-glucosidase MAL12 (Saccharomyces cerevisiae (strain ATCC 204508 / S288c), UniProt P53341)
Assay: Assay for α-Glucosidase Inhibitory Activity
Procedure: The 135 µL of 50 mM phosphate saline buffer pH (6.8), solution of enzyme (20 µL), and 20 µL of test sample with 70% DMSO was added to 96-well plate. The samples were incubated for 15 min. Pre-read of the plate was taken after incubation using SpectraMax. substrate (pNPG) (25 µL) was added before final reading was takenat 400 nm on Spectra Max.

Alpha-glucosidase MAL12, sequence (P53341 whole entry): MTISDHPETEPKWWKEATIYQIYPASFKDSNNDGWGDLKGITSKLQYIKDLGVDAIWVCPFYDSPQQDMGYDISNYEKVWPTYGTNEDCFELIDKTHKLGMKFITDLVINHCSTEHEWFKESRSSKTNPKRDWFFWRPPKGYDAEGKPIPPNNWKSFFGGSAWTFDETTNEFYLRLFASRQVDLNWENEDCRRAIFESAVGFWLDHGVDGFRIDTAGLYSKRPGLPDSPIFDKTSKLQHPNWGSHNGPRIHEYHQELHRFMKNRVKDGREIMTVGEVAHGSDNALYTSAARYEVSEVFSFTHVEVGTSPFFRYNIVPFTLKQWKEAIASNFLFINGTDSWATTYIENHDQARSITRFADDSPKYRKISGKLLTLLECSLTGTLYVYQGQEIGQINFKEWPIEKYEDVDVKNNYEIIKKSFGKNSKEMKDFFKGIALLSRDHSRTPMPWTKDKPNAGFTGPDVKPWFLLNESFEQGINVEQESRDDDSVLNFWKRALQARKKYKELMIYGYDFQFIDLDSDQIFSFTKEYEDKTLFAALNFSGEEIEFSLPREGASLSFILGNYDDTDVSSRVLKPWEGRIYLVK

| Structure (SMILES) | IC50 [µM] |
| --- | --- |
| Cc1cccc2nc(-c3ccc(O)cc3)[nH]c12 [2-(4'-Hydroxyphenyl)-7-methyl-1H-benzo[d]imidazole (17)] | 95.6 |
| Cc1cccc2nc(-c3ccccc3Cl)[nH]c12 [2-(2'-Chlorophenyl)-7-methyl-1H-benzo[d]imidazole (25)] | 5.3 |
| Cc1cccc2nc(-c3ccccc3O)[nH]c12 [2-(2'-Hydroxyphenyl)-7-methyl-1H-benzo[d]imidazole (19)] | 16.1 |
| COc1ccc(O)c(-c2nc3cccc(C)c3[nH]2)c1 [2-(2'-Hydroxy-5'-methoxyphenyl)-7-methyl-1H-benzo[d]imidazole (14)] | 45.2 |
| Cc1cccc2nc(-c3ccc(F)cc3)[nH]c12 [2-(4'-Fluorophenyl)-7-methyl-1H-benzo[d]imidazole (16)] | 136 |
| Cc1cccc2nc(-c3ccc(O)cc3O)[nH]c12 [2-(2',4'-Dihydroxyphenyl)-7-methyl-1H-benzo[d]imidazole (2)] | 60.9 |
| Cc1cccc2nc(-c3cccc(O)c3)[nH]c12 [2-(3'-Hydroxyphenyl)-7-methyl-1H-benzo[d]imidazole (18)] | 326 |
| Cc1cccc2nc(-c3ccc(Cl)cc3)[nH]c12 [2-(4'-Chlorophenyl)-7-methyl-1H-benzo[d]imidazole (27)] | 145 |
| Cc1cccc2nc(-c3ccccc3[N+](=O)[O-])[nH]c12 [2-(2'-Nitrophenyl)-7-methyl-1H-benzo[d]imidazole (7)] | 44.6 |
| Cc1cccc2nc(-c3ccc(O)c(O)c3)[nH]c12 [2-(3',4'-Dihydroxyphenyl)-7-methyl-1H-benzo[d]imidazole (10)] | 25.4 |
| Cc1cccc2nc(-c3cccc(O)c3O)[nH]c12 [2-(2',3'-Dihydroxyphenyl)-7-methyl-1H-benzo[d]imidazole (15)] | 85.6 |
| Cc1cccc2nc(-c3ccncc3)[nH]c12 [7-Methyl-2-(pyridin-4'-yl)-1H-benzo[d]imidazole (24)] | 726 |
| Cc1cccc2nc(-c3cccc(F)c3)[nH]c12 [2-(3'-Fluorophenyl)-7-methyl-1H-benzo[d]imidazole (9)] | 165 |
| COc1ccc(-c2nc3cccc(C)c3[nH]2)c(O)c1 [2-(2'-Hydroxy-4'-methoxyphenyl)-7-methyl-1H-benzo[d]imidazole (20)] | 29.8 |
| Cc1cccc2nc(-c3cc(O)ccc3O)[nH]c12 [2-(20,50-Dihydroxyphenyl)-7-methyl-1H-benzo[d]imidazole (13)] | 125 |
| Cc1cccc2nc(-c3ccccc3F)[nH]c12 [2-(2'-Fluorophenyl)-7-methyl-1H-benzo[d]imidazole (8)] | 34.4 |
| COc1ccc(-c2nc3cccc(C)c3[nH]2)cc1O [2-(3'-Hydroxy-4'-methoxyphenyl)-7-methyl-1H-benzo[d]imidazole (21)] | 226 |
